Test results as given in patent US6555322B1, “α2-macroglobulin receptor as a receptor for CTGF” (FibroGen, Inc., priority 1999, dated 2003).
Values belong to the compound of their own block, whether it stands above or below them.

Key:
MG63 cells [1] = assay: Internalization and degradation of 125I-rhCTGF during binding, with additives; format: cell-based, human; details: for degraded/internalized 125I-CTGF with additive: both cultures (control and TGF-β treated)
Experimental: Another experiment was performed in which the internalization and degradation of CTGF was followed during the time course of binding to the cells. Various additives were included in the binding medium to examine the effect(s) and specificity of CTGF binding and internalization through LRP.
MG63 cells were plated and treated with TGF-β for 24 or 48 hours as in the previous experiment.

LRP [2] = target: T1, LRP (Mus musculus, UniProt Q91ZX7); assay: RAP-GST competition of CTGF binding on BMS-2 cells; set-up: species or system murine
T1 construct: endogenous in cells; host or cells: BMS2 (BMS-2) murine bone marrow stromal cells
Experimental: In a further study, receptor associated protein (RAP), a known inhibitor of ligand binding to LRP, was prepared. Plasmid DNA containing the human RAP cDNA sequence was obtained (ATCC as the I.M.A.G.E. Consortium Clone ID 511113, Lennon et al., 1996, Genomics, 33:151-152). The RAP sequence was sub-cloned into the pGEX4T-1 vector (Pharmacia) for the synthesis of a RAP-GST (glutathione S-transferase) fusion protein in E. coli. The fusion protein was purified over glutathione-Sepharose as described (Warshawsky et al., 1993, J. Biol. Chem., 268:22046-22054), and tested as a competitor of CTGF binding.

MG63 cells [3] = assay: CTGF production and accumulation in medium and cell layer (Western blot, densitometry); format: cell-based, human; details: RAP 10 nM
Experimental: To determine whether LRP was involved in the mediation of a CTGF signaling event, experiments were conducted to study the effect of anti-LRP antibodies on CTGF production and accumulation. MG63 cells were plated at 2.5×10^4 cells/cm^2 in 24 well plates in MEM with 10% FBS. The following day, the medium was changed to MEM with 0.5% FBS. Additionally, half of the wells were supplemented with 20 ng/ml TGF-β2. Some of the cells also received either anti-LRP antibodies (American Diagnostic) (3 ug/ml 3402 and 1 ug/ml 3501) or RAP (10 nM). At 15, 23, and 47 hours after exposure to these additives, medium and cell layers were harvested.
The harvested media was then incubated with heparin-SEPHAROSE for 4 hours. The beads were washed twice with RIPA buffer and the bound fraction was eluted with SDS-PAGE sample buffer. The cell layer was washed twice with PBS, then extracted for 15 min at 4° C. with RIPA buffer. The cell layer was collected by scraping, and centrifuged to remove the insoluble material. The soluble fraction was used for SDS-PAGE analysis. Both medium and cell layer samples were run non-reduced on 12% SDS-PAGE, then blotted to nitrocellulose. The nitrocellulose membranes were incubated with a rabbit polyclonal antibody made against rhCTGF (using procedures well known in the art), the data of which is shown in FIGS. 22A and 22B.

[4] = target: T2, high Mr CTGF binding protein on BMS-2 cells (Mus musculus, UniProt Q91ZX7); assay: Binding analysis of 125I-CTGF competition with LRP ligands on BMS-2 cells; set-up: species or system murine; details: 0.1 nM 125I-CTGF
T2 construct: endogenous in cells; host or cells: BMS2 (BMS-2) murine bone marrow stromal cells
Experimental: BMS-2 cells were incubated with 0.1 nM ^125I-CTGF in the presence of unlabeled CTGF, recombinant human apoE, low density lipoprotein purified from human plasma (LDL), or lipoprotein lipase purified from bovine milk (LpL).

LRP [5] = target: T1, LRP; assay: Competitive binding and cross-linking of LRP ligands with 125I-CTGF on BMS-2 cells; set-up: species or system murine; details: 50 pM 125I-CTGF; CTGF 21.5 nM, BP5 201-218 50 μg/ml, LF 25 μg/ml, apo E 20 μg/ml, LpL 20 μg/ml
Experimental: To examine whether ligands known to bind to LRP inhibit CTGF binding, BMS-2 cells were labeled with 50 pM ^125I-CTGF in the presence or absence of unlabeled ligand (CTGF: 21.5 nM; BP5^201-218: 50 μg/ml or […] (Campbell and Andress, 1997, Am. J. Physiol., 273:E1005-13); lactoferrin (LF): 25 μg/ml or 250 nM; apo E: 20 μg/ml or 574 nM; lipoprotein lipase (LpL): 20 μg/ml or 400 nM). The cells were cross-linked and the receptor complexes were solubilized, processed on SDS-PAGE and visualized by autoradiography.

MG63 cells [6] = assay: Internalization and degradation kinetics of 125I-CTGF with heparin or lactoferrin; format: cell-based, human; details: 3 μg/ml heparin or lactoferrin
Experimental: Experiments were performed in which the internalization and degradation kinetics of CTGF were followed in the presence or absence of a known LRP ligand, lactoferrin. Kinetics were followed in the presence or absence of 3 μg/ml heparin or lactoferrin. ^125I-CTGF was bound to MG63 cells at 4° C. and free CTGF was removed by washing the cells. Fresh medium was placed on the cells, and the cells were transferred to 37° C. At each time point, the medium was removed and TCA precipitated. Degraded ^125I-CTGF was quantified by measuring the cpm in the non-precipitable fraction (see FIG. 17). In parallel experiments, ^125I-CTGF was bound to MG63 cells at 4° C. and free CTGF was removed by washing the cells. Fresh medium was placed on the cells, and they were transferred to 37° C. At each time point, the cell layer was removed by extensive trypsinization at 4° C. The cells were centrifuged and the cpm associated with the pellet, the internalized fraction, was determined (see FIG. 18).

T1 sequence (Q91ZX7 20-4545): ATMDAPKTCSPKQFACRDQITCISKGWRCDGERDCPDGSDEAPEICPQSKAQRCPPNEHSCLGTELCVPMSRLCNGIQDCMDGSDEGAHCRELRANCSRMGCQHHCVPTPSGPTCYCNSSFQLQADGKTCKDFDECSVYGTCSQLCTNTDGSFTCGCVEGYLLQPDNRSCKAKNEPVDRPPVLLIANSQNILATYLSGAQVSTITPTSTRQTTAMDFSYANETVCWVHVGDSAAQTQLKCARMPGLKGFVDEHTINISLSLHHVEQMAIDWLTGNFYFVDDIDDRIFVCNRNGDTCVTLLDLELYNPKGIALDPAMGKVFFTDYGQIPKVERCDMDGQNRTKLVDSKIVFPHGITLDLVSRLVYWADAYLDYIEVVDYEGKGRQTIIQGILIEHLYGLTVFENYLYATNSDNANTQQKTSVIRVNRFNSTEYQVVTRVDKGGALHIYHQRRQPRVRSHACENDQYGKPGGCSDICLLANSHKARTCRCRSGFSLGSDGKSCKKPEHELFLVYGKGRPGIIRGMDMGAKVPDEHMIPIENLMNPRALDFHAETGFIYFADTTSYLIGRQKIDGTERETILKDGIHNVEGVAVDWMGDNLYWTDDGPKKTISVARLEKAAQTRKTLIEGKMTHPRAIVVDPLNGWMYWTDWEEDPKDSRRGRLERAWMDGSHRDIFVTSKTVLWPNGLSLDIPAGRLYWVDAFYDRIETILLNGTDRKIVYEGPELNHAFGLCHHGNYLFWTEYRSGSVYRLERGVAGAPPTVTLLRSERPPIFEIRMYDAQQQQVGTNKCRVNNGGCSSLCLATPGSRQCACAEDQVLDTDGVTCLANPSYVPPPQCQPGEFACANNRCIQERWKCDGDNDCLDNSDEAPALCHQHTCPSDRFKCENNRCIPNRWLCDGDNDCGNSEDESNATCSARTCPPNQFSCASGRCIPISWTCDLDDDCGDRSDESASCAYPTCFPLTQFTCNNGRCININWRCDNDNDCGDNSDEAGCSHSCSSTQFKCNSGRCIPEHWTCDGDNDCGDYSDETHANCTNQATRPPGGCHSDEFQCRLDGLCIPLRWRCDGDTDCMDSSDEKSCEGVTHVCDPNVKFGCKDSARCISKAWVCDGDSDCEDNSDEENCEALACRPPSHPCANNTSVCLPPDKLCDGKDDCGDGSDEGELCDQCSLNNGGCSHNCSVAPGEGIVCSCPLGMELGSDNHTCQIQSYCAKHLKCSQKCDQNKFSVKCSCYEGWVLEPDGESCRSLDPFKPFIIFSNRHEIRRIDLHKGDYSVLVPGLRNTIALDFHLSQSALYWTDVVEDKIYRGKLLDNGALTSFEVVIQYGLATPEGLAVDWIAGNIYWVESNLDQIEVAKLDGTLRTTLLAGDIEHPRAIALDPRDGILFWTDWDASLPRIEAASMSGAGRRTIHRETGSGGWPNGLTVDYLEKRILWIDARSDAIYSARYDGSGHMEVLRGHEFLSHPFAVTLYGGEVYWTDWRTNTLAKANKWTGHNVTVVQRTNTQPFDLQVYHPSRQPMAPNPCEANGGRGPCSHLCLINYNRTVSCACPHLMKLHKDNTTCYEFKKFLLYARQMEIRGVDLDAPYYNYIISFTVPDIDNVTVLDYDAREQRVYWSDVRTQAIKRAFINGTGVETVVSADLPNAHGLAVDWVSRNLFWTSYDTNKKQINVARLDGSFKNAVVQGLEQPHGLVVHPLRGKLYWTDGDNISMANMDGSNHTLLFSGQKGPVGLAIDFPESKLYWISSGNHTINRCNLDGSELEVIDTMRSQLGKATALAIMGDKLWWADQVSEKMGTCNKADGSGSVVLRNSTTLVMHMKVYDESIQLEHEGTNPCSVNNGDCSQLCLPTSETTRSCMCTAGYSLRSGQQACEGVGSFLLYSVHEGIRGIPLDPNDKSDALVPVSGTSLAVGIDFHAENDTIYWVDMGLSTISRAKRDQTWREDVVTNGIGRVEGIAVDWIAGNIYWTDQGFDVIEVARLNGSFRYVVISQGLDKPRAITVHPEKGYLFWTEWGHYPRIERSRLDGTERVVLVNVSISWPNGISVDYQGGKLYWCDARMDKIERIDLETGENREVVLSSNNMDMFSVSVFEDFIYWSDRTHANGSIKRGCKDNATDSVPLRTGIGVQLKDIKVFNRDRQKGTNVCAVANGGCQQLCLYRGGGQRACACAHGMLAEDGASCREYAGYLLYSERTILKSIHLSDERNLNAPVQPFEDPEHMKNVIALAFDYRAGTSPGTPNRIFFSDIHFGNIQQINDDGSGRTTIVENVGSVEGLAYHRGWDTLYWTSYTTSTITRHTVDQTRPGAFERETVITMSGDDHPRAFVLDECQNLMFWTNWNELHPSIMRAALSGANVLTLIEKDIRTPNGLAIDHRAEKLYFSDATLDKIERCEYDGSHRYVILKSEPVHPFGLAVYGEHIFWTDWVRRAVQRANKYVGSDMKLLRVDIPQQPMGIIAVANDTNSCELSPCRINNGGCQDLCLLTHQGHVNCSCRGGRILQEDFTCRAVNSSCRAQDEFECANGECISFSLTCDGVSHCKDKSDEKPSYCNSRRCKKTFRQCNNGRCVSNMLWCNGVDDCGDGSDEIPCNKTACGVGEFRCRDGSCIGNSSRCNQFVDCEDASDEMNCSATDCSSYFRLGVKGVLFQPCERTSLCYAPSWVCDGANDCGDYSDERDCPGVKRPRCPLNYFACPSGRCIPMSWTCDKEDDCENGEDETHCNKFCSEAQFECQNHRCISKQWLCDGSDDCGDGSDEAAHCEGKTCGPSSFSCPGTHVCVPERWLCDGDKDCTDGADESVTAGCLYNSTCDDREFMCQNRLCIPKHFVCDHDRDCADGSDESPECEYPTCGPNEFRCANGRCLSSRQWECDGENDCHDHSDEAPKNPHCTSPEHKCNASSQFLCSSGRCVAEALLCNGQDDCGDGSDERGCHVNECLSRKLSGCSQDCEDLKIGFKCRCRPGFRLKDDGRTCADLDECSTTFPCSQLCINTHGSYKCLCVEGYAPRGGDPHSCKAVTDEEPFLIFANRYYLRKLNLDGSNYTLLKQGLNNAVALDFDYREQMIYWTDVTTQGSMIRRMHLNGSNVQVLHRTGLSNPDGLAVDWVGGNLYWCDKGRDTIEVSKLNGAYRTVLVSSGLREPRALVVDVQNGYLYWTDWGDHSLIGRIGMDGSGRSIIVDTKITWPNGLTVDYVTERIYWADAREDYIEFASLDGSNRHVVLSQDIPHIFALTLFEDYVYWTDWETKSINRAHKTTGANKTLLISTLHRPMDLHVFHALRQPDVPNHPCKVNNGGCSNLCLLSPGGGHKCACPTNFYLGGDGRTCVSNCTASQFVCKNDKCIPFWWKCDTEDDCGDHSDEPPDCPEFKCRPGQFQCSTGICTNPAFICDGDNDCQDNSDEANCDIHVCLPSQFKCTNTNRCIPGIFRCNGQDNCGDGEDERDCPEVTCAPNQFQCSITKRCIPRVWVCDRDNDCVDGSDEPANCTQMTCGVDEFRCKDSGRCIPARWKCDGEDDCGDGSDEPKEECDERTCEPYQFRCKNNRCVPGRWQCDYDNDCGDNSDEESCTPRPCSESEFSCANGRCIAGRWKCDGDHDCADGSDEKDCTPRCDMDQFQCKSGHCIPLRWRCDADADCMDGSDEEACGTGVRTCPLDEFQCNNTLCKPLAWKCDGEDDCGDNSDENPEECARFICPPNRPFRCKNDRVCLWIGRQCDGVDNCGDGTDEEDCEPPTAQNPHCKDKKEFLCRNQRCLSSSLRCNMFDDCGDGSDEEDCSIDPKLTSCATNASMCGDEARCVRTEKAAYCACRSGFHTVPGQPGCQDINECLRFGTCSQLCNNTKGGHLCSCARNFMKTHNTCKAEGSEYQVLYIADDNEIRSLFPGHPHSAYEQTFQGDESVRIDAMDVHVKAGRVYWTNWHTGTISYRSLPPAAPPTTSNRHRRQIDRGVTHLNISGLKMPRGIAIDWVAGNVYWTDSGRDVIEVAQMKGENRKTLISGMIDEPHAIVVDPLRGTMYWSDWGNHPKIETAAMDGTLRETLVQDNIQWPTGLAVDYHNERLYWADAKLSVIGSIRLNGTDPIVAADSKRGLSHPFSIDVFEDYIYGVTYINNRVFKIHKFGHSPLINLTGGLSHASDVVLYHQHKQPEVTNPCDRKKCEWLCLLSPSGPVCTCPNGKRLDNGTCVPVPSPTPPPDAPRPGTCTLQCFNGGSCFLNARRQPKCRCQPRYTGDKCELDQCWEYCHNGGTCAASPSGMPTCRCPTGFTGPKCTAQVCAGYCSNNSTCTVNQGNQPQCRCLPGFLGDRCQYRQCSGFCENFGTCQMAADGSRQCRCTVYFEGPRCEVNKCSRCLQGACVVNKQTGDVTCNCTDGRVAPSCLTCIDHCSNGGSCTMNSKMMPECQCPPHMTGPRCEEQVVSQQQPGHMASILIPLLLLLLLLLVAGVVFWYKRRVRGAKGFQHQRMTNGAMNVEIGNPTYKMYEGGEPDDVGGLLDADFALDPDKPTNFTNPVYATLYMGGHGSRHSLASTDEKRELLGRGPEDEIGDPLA
T2 sequence (Q91ZX7 20-4545): as above

Compound: CC(C)C[C@H](NC(=O)[C@@H](NC(=O)N[C@@H](Cc1ccccc1)C(=O)O)[C@@H]1CCN=C(N)N1)C(=O)N[C@H](C=O)Cc1ccccc1 [Chymostatin]
degraded/internalized 125I-CTGF with additive (MG63 cells [1]): no appreciable affect

Compound: CCN(CC)CCCC(C)Nc1ccnc2cc(Cl)ccc12 (centres unmarked) [chloroquin, Chloroquin]
rhCTGF remaining internalized, TGF-β treated cultures (MG63 cells [1]; chloroquin treated samples, TGF-β treated cultures): ~400 fmol | rhCTGF remaining internalized, control cultures (MG63 cells [1]; chloroquin treated samples, control cultures): About 1000 fmoles | secretion of CTGF degradation products into the medium (MG63 cells [1]; in the presence of chloroquin): not secreted into the medium

competition for CTGF binding to LRP (LRP [2]): no competitive activity
Compound: GST: GST protein by itself, control for RAP-GST

competition for CTGF binding to LRP (LRP [2]): able to compete
Compound: RAP-GST: human receptor associated protein as glutathione S-transferase fusion protein made in E. coli; inhibitor of ligand binding to LRP
CTGF levels in cell layer, RAP treated samples (MG63 cells [3]): slightly increased levels | CTGF medium concentration at 15 and 23 hours (MG63 cells [3]): an increase | CTGF medium levels at 47 hours (MG63 cells [3]): returned to basal levels | degraded/internalized 125I-CTGF with additive (MG63 cells [1]): to background levels

competition with 125I-CTGF [4]: competed | competing the binding to the LRP receptor (LRP [5]): very effective in competing
Compound: apolipoprotein E [apoE, reference compound]

Compound: heparin [reference compound]
rate of degradation of CTGF (MG63 cells [6]): reduced the rate | rate of internalization of CTGF (MG63 cells [6]): reduced the rate
